Measurements reported in patent US6020121A (priority 1996, dated 2000).
“Also recorded” adds a separate entry of the source. Where a SMILES comes first, the peptide text is derived from it. The star is where a group is joined. Cbz = O=C(OCc1ccccc1)*; Bz = O=C(c1ccccc1)*

Tests used:
Agr P3 promoter = assay: Agr P3-β-lactamase fusion screen: β-lactamase activity; conditions: for Status from algorithm: Table 3; for β-Lactamase inhibition: corrected for cell density, screen at 10 μg/ml final, 6 hours, 35° C., negative = induction; for Behaviour in the P3-β-lactamase screen (in words): text
[1] = tested on: Staphylococcus aureus strain 8325-4/pMP25; assay: Growth in presence of test compounds in the Agr screen; conditions: compared to untreated Agr+ cells; screen at 10 μg/ml final, 6 hours, 35° C.
protein A = assay: Protein A expression immunoblot; type: cell-based, Staphylococcus aureus; conditions: Table 4; relative to Agr- mutant cells
Protocol: FIG. 18. Immunodetection of staphylococcal protein A in treated and untreated cultures. Cells were grown in presence of compounds 1, 2, or 3 to a similar density (O.D. 600 nm--0.5-0.6). Cells were lysed using lysostaphin prior to separation of cell surface proteins by SDS-PAGE. After electrophoretic transfer of proteins from the gel onto a nitrocellulose membrane, detection of protein A on the blot was possible by using a specific anti-protein A antibody and a second antibody that allowed chemiluminescent detection of immune complexes. The chemiluminescence was captured by autoradiography.
Protein A. Protein A expression is assayed by immunoblots of SDS-Page separated total cell proteins (Patel et al., Infection and Immunity 55:3103-3110 (1987)).

RNAIII [2] = assay: RNAIII Northern Blot
[3] = tested on: S. typhimurium chemotaxis; assay: Chemotaxis (swarm agar plates); type: cell-based, Salmonella typhimurium; conditions: S. typhimurium on ribose-containing swarm agar plates
From the text: Chemotaxis: Motility has been studied in a variety of bacteria. The molecular mechanisms of motility have been best characterized in E. coli and S. typhimurium but analogs of the molecular components have been detected in both Gram-negative and Gram-positive organisms (Morgan et al., J. Bacteriol. 175:133-140 (1993)). A two-component regulatory system composed of either cheA/cheY or cheA/cheB (Stewart and Dahlquist, Chem. Rev. 87:997-1025 (1987); MacNab, Motility and Chemotaxis, pp. 732-759, In F. C. Neidhardt, et al., ed., Escherichia coli and Salmonella typhimurium: cellular and molecular biology, American Society for Microbiology, Washington, D.C. (1987)), is central to the ability of these organisms to detect and respond appropriately to chemical substances. Such response can be detected on minimal swarm agar plates containing a chemoattractant (sugars or amino acids) (J. S. Parkinson, J. Bacteriol. 126:758-770 (1976)), or a capillary assay system, in which chemoattractant is placed in a capillary tube and immersed in a liquid bacterial culture. Bacteria capable of chemotaxis will swim into the capillary and can be detected by performing viable cell counts (Adler, J. Gen. Microbiol. 74:77-91 (1973)). […]

[4] = tested on: B. subtilis strain 168 sporulation; assay: Sporulation; type: cell-based, Bacillus subtilis; conditions: B. subtilis strain 168, compared to untreated controls
From the text: Sporulation: Sporulation is a well-characterized event in many organisms, including Bacillus subtilis (spoIIJ/spo0A or spoIIJ/spo0F, Losick et al., Annu. Rev. Genet. 20:625-669 (1986); Smith, The initiation of sporulation,pp. 185-210, In I. Smith et al. eds., Regulation of procaryotic development, American Society for Microbiology, Washington, D.C. (1989)). It can be induced in various media (Leighton and Doi, J. Biol. Chem. 246:3189-3195 (1971); Piggot and Curtis, J. Bacteriol. 169:1260-1266 (1987)), and can be easily assayed (Nicholson and Setlow, Sporulation, germination, and outgrowth, pp. 391-429, In C. R. Harwood and S. M. Cutting eds., Molecular biological methods for Bacillus, John Wiley and Sons, Ltd., Chichester, West Sussex, England (1990)). Briefly, by heating the cells to 80-85° C. for 15-20 min, undifferentiated cells are killed while spores survive. Therefore, by determining the difference in viable cell count of control cultures versus heat treated cultures, it is possible to calculate the percent sporulation for a given culture or condition. Compounds that inhibit the signal transduction system responsible for the induction of sporulation will lower the viable cell count of the heat treated culture.

alpha-hemolysin = type: cell-based, Staphylococcus aureus
RNAIII [5] = assay: RNAIII Northern Blot in clinical strains; type: cell-based, Staphylococcus aureus; conditions: several clinical strains of S. aureus (no. 212, 213, 215, and 217), FIG. 20
From the text: FIG. 20. Northern Blots for RNAIII detection in several clinical strains of S. aureus (no. 212, 213, 215, and 217) grown in the presence of Compound 10. Untreated strain 8325-4 (Agr+) is also represented and acts as a control to show the maximal amounts of RNAIII also detected in all clinical strains grown without the test compound.

Staphylococcus aureus = assay: Mucin-enhanced murine peritonitis model; type: in vivo, mice (Balb/c); conditions: challenge dose of 10^10 cfu; 3.15 mg/kg

In the case of CC(C)CC(NC(=O)OCc1ccccc1)C(=O)NC(Cc1ccc(O)cc1)C(N)=O (stereo not drawn) [Compound 7] (Cbz-Leu-Tyr-NH2; configuration not given here), the Status from algorithm (Agr P3 promoter) is reported as “Active”, the β-Lactamase inhibition (Agr P3 promoter) is reported as 87% and the Growth [1] is reported as 103%.
CC(=O)OC1CCC2(C)C(CCC3C4CC5OC6(CCC(C)CO6)C(C)C5C(C)=C4CC32)C1 (stereo not shown) [Compound 6] was tested, and the Status from algorithm (Agr P3 promoter) was “GR and Inducer”, the β-Lactamase inhibition (Agr P3 promoter) was -111% and the “Behaviour in the P3-β-lactamase screen (in words)” value (from here on “Behaviour”) (Agr P3 promoter) was “enhance the production of β-lactamase; also recorded: showed inducer rather than inhibitor activity”. The “Behaviour” value (Agr P3 promoter; listed as compound 6) was “increased activity of the β-lactamase reporter”, the Growth [1] was 72% and the “Protein A expression” value (protein A) was “[+]”. The “RNAIII production (in words)” value (RNAIII [2]; FIGS. 14 and 15) was “allowed overexpression of RNAIII” and the “RNAIII production (in words)” value (RNAIII [2]; FIGS. 14 and 15, listed as compound 6) was “marked increase in RNAIII”.
In the case of CCCc1c(C(=O)Nc2cccc(C(F)(F)F)c2)cnn1-c1ccccc1 [Compound 9], the Status from algorithm (Agr P3 promoter) is reported as “Active”, the β-Lactamase inhibition (Agr P3 promoter) is reported as 86% and the Growth [1] is reported as 91%.
In the case of CC(CS)=NOC(=O)c1c(-c2ccccc2)noc1C [Compound 11], the Status from algorithm (Agr P3 promoter) is reported as “Active”, the β-Lactamase inhibition (Agr P3 promoter) is reported as 77% and the “chemotaxis effect (in words)” value [3] is reported as “deregulated chemotaxis and enhanced swarm diameters of S. typhimurium; also recorded: not a chemi-attractant or -repellant itself”. It also gave a Growth [1] of 104%.
CC(=O)OC1CCC2(C)C(CC(=O)C3(C)C2CCC2(C)C(c4ccoc4)OC(=O)C4OC423)C1(C)C (stereo not shown) [Compound 2] was tested, and the Status from algorithm (Agr P3 promoter) was “Active”, the β-Lactamase inhibition (Agr P3 promoter) was 84% and the Growth [1] was 122%.
For CCCCCCCCCCCC(=O)OCC(O)CO (stereo not shown) [GML, Glycerol monolaureate, reference compound], the “Behaviour” value (Agr P3 promoter) was “did not qualify as a hit in the screen” and the “RNAIII production (in words)” value (RNAIII [2]; FIGS. 14 and 15) was “showed no effect on RNAIII; also recorded: has no effect on RNAIII production”.
For CC(C)CC(NC(=O)c1ccccc1)C(=O)NC(Cc1ccc(O)cc1)C(N)=O (stereo not drawn) [Compound 8] (Bz-Leu-Tyr-NH2; configuration not given here), the Status from algorithm (Agr P3 promoter) was “Active”, the β-Lactamase inhibition (Agr P3 promoter) was 84% and the Growth [1] was 101%.
In the case of Cc1ccc(NN=C(C#N)C(=O)c2cc(C)nn2C(C)(C)C)cc1 [Compound 13], the Status from algorithm (Agr P3 promoter) is reported as “Active”, the β-Lactamase inhibition (Agr P3 promoter) is reported as 75% and the Growth [1] is reported as 111%.
In the case of O=C1OC(c2cccnc2Sc2ccc(Cl)cc2)=NC1=Cc1ccc(C(F)(F)F)cc1 [Compound 18], the Status from algorithm (Agr P3 promoter) is reported as “Active”, the β-Lactamase inhibition (Agr P3 promoter) is reported as 75% and the Growth [1] is reported as 89%.
For CN(C)/C=C/C(=O)c1sc(SCc2ccc(Cl)cc2)c2c1CC(C)(C)CC2=O [Compound 17], the Status from algorithm (Agr P3 promoter) was “Active”, the β-Lactamase inhibition (Agr P3 promoter) was 83% and the Growth [1] was 87%.
For O=C(O)/C=C/c1ccc(Sc2ccc(Br)cc2)c([N+](=O)[O-])c1 [Compound 16], the Status from algorithm (Agr P3 promoter) was “Active”, the β-Lactamase inhibition (Agr P3 promoter) was 78% and the Growth [1] was 106%.
In the case of CC(=O)OC1CC2C(C)(C)CCCC2(C)C2CCC3(C)C(=CC(=O)OC3c3ccoc3)C12C (stereo not shown) [Compound 3], the Status from algorithm (Agr P3 promoter) is reported as “GR and Active”, the β-Lactamase inhibition (Agr P3 promoter) is reported as 83% and the Growth [1] is reported as 70%. For the same molecule, the “decrease in percent sporulation” value [4] was “more than 50%”.
C=C1C(=O)OC2CC1C(OC(C)=O)CC(C)=CCCC(C)=CCCC2(C)O (stereo not shown) [Compound 15] was tested, and the Status from algorithm (Agr P3 promoter) was “Active”, the β-Lactamase inhibition (Agr P3 promoter) was 76% and the Growth [1] was 101%.
For O=S(=O)(Nc1cc(C(F)(F)F)cc(C(F)(F)F)c1)c1cccc2nsnc12 [Compound 14], the Status from algorithm (Agr P3 promoter) was “Active”, the β-Lactamase inhibition (Agr P3 promoter) was 77% and the Growth [1] was 94%. For the same molecule, the “decrease in percent sporulation” value [4] was “more than 50%”.
In the case of C=C(C)C=CCC1C(C)(O)CCC2C(C)(C)CCCC21C (stereo not shown) [Compound 1], the Status from algorithm (Agr P3 promoter) is reported as “Active”, the β-Lactamase inhibition (Agr P3 promoter) is reported as 75% and the Growth [1] is reported as 105%.
For Cc1cc(C(F)(F)F)cc(N(C)NC2OC(=O)c3ccccc32)n1 (stereo not shown) [Compound 12], the Status from algorithm (Agr P3 promoter) was “Active”, the β-Lactamase inhibition (Agr P3 promoter) was 76% and the Growth [1] was 124%.
With O=C(O)c1cn(C2CC2)c2cc(N3CCNCC3)c(F)cc2c1=O [ciprofloxacin, reference compound] the “Behaviour” value (Agr P3 promoter) was “do not behave as hits” and the “alpha-hemolysin activity (in words)” value (alpha-hemolysin) was “did not inhibit alpha-hemolysin activity”.
For O=C(Nc1ccccc1)OC(Cc1ccccc1)C(F)(F)F (stereo not shown) [Compound 10], the Status from algorithm (Agr P3 promoter) was “Active”, the β-Lactamase inhibition (Agr P3 promoter) was 84% and the “RNAIII expression in clinical strains (in words)” value (RNAIII [5]) was “greatly reduced”. The Growth [1] was 107%.
For CN[C@H](CC(C)C)C(=O)N[C@H]1C(=O)N[C@@H](CC(N)=O)C(=O)N[C@H]2C(=O)N[C@H]3C(=O)N[C@H](C(=O)N[C@H](C(=O)O)c4cc(O)cc(O)c4-c4cc3ccc4O)[C@H](O)c3ccc(c(Cl)c3)Oc3cc2cc(c3O[C@@H]2O[C@H](CO)[C@@H](O)[C@H](O)[C@H]2O[C@H]2C[C@](C)(N)[C@H](O)[C@H](C)O2)Oc2ccc(cc2Cl)[C@H]1O [vancomycin], the “Behaviour” value (Agr P3 promoter) was “do not behave as hits”, the “treatment of infection (in words)” value (Staphylococcus aureus) was “treatable” and the “alpha-hemolysin activity (in words)” value (alpha-hemolysin) was “did not inhibit alpha-hemolysin activity”.
